The text below walks through data of patent publication US10059698B2, “Hesperetin aza-cinnamic acid derivatives with anti-tumor activities and a method of preparing the same” (Shaanxi University of Science and Technology, priority 2016, dated 2018).

The subject of data set [1] is human glioma cells (U251). As to the kind of experiment: tumor cell proliferation inhibition test (MTT), U251. It counts as cell-based. To be noted: U-251, 48 hours. The source says:
(§1) The compounds of the present invention were subjected to tumor cell proliferation inhibition test, and the conventional MTT method was used as the test method.
(§2) Cell lines selected are nonismall cell lung cancer cells (A549), human hepatocellular carcinoma cells (SMMC-7721), human glioma cells (U251), human gastric adenocarcinoma cells (SGC-7901), and human breast cancer cells (MCF-7). The culture medium was DMEM+15% NBS+double antibody.
(§3) Preparation of the sample solutions: compounds were dissolved in DMSO (Merck), and PBS (−) was add to 100 μL of the solution or homogeneous suspension. The solution or suspension was diluted with DMSO and PBS(−) to final concentrations of 0.1, 1, 10, 20, 40, 60, 80, 100 μmol/L.
(§4) Anti-tumor agent cytarabine (Ara-C) was used as control and was prepared in the same way as the compounds.
(§5) Cell culture: adherent growth Tumor cells were cultured in 1640 medium containing 10% inactivated neonatal bovine serum and penicillin, streptomycin (1 million U/L), placed in carbon dioxide incubator at 37° C., 5% CO2, and saturated humidity. Cells were treated serially passaged 2-3 times. The first culture was washed with PBS 2 times, and digested with trypsin. Fresh culture medium was added evenly, cells were adjusted to a appropriate concentration and transferred into a new culture flask. Cell in an exponential phase were chosen for the tests.
(§6) Experimental Principle: Living cells mitochondria in the dehydrogenase can reduce yellow MTT to water-insoluble blue-violet product MT (MTT formazan), deposited in the cells. The amount of production is proportional to the number of living cells. […] DMSO can dissolve blue violet crystals, and the color depth is proportional to the amount contained, so the absorbance measured by the microplate reader can reflect the cell viability.
(§7) Methods: The exponential phase cells were digested and counted and seeded in 96-well plates at a density of 2×10^4/mL at 100 μl per well. After 24 hours of incubation, the cells to be tested were treated with 0.1, 1, 10, 20, 40, 60, 80, 100 μmol/L of the compounds. Each experimental group had 5 wells in each concentration, and the culture medium containing 0.4% DMSO was used as control. After 48 hours, the supernatant was discarded, and 100 μl of MTT ((2-(4,5-dimethyl-2-thiazolyl)-3,5-diphenyl-2H-[…]) (1 mg/mL) was added to each well. After another 4 hours, the supernatant was discarded, and 100 μL of DMSO was added to each well. After mixing, the absorbance was measured at 570 nm using a microplate reader. An IC50 calculation software was used to determine the half inhibitory concentration (IC50).

Data set [2] concerns human gastric adenocarcinoma cells (SGC-7901). Put plainly: tumor cell proliferation inhibition test (MTT), SGC-7901. The data set is classed as cell-based. As to conditions: SGC-7901 cells, 48 hours.
Source text: as §1, §2, §3, §4, §5, §6, §7

The test system of data set [3] is nonismall cell lung cancer cells (A549). As to the kind of experiment: tumor cell proliferation inhibition test (MTT), A549. The data set is classed as cell-based. As to conditions: Homo sapiens, 48 hours.
Source text: as §1, §2, §3, §4, §5, §6, §7

For data set [4], the system named is human hepatocellular carcinoma cells (SMMC-7721). As to the kind of experiment: tumor cell proliferation inhibition test (MTT), SMMC-7721. It counts as cell-based. To be noted: SMMC-7721 cells, 48 hours.
Source text: as §1, §2, §3, §4, §5, §6, §7

Data set [5] has as its system human breast cancer cells (MCF-7). Put plainly: tumor cell proliferation inhibition test (MTT), MCF-7. The data set is classed as cell-based. To be noted: MCF7, MCF-7 cells, 48 hours.
Source text: as §1, §2, §3, §4, §5, §6, §7

Data set [6] concerns tumor cells (A549, SMMC-7721, U251, SGC-7901, MCF-7). As to the kind of experiment: tumor cell proliferation inhibition test (MTT), all cell lines tested. The data set is classed as cell-based, human. As to conditions: in some cell lines tested.
Source text: as §1, §2, §3, §4, §5, §6, §7

Data set [7] concerns HepG2 cells. As to conditions: in vitro; time-dependent and dose-effect relationship; cited from earlier work.
The conditions of data set [8]: rats; cited from earlier work.

A word on the IC50: it is the concentration that inhibits the measured activity by half. Low readings indicate higher potency, high ones lower potency. As for `Nc1ccn([C@@H]2O[C@H](CO)[C@@H](O)[C@@H]2O)c(=O)n1` [Ara-C, cytarabine, reference compound], the concentration for half-maximal inhibition (IC50) was 19.2 ± 0.39 µM in data set [1]; 67.6 ± 3.73 µM in data set [2]; over 100 µM in data set [3]; 18.3 ± 0.64 µM in data set [4]; 76.9 ± 1.78 µM in data set [5].

For `COc1ccc([C@@H]2CC(=O)c3c(O)cc(OC(=O)/C=C/c4ccccn4)cc3O2)cc1O` [Compound A, (S,E) 5-hydroxy-2-(3-hydroxy-4-methoxyphenyl)-4-oxochroman-7-yl 3-(pyridin-2-yl) acrylic acid ester], the IC50 was over 100 µM in data set [1]; 89.9 ± 1.02 µM in data set [2]; 35.1 ± 0.47 µM in data set [3]; 46.8 ± 1.56 µM in data set [4]; 43.1 ± 1.31 µM in data set [5]. In addition, the “activities compared with Ara-C” value in data set [6] is “equal or better activities than Ara-C”.

Take `COc1ccc([C@@H]2CC(=O)c3c(O)cc(OC(=O)/C=C/c4ccc(C)cn4)cc3O2)cc1O` [Compound B, (S,E) 5-hydroxy-2-(3-hydroxy-4-methoxyphenyl)-4-oxochroman-7-yl 3-(5-methylpyridin-2-yl) acrylate acid ester]: the IC50 in data set [1] is 46 ± 0.21 µM; in data set [2] it was over 100 µM; in data set [3] it was over 100 µM; in data set [4] it was 67.1 ± 1.74 µM; in data set [5] it was over 100 µM. Besides, in data set [6], the “activities compared with Ara-C” value is “equal or better activities than Ara-C”.

`COc1ccc([C@@H]2CC(=O)c3c(O)cc(OC(=O)/C=C/c4ccc(Cl)cn4)cc3O2)cc1O` [Compound C, (S,E) 5-hydroxy-2-(3-hydroxy-4-methoxyphenyl)-4-oxochroman-7-yl 3-(5-chloropyridin-2-yl) acrylate acid ester]: the IC50 was determined as 11.7 ± 0.45 µM in data set [1]; 18.4 ± 1.71 µM in data set [2]; 5.54 ± 0.39 µM in data set [3]; 86.9 ± 2.28 µM in data set [4]; 22.7 ± 0.32 µM in data set [5]. Further, the “activities compared with Ara-C” value in data set [6] is on record as “equal or better activities than Ara-C”.

With `COc1ccc([C@@H]2CC(=O)c3c(O)cc(OC(=O)/C=C/c4ccc(F)cn4)cc3O2)cc1O` [Compound D, (S,E) 5-hydroxy-2-(3-hydroxy-4-methoxyphenyl)-4-oxochroman-7-yl 3-(5-fluoropyridin-2-yl) acrylate acid ester], the IC50 in data set [1] worked out at 57.13 ± 0.47 µM; in data set [2], 67.13 ± 0.28 µM; in data set [3], 7.28 ± 0.13 µM; in data set [4], 12.8 ± 1.37 µM; in data set [5], 23.7 ± 1.5 µM. In data set [6], the “activities compared with Ara-C” value is listed as “equal or better activities than Ara-C”.

Turning to `COc1ccc([C@@H]2CC(=O)c3c(O)cc(OC(=O)/C=C/c4ccc([N+](=O)[O-])cn4)cc3O2)cc1O` [Compound E, (S,E) 5-hydroxy-2-(3-hydroxy-4-methoxyphenyl)-4-oxochroman-7-yl 3-(5-nitropyridin-2-yl) acrylate acid ester], the IC50 in data set [1], in data set [2], in data set [3], in data set [4] and in data set [5] was over 100 µM throughout.

`COc1ccc([C@@H]2CC(=O)c3c(O)cc(OC(=O)/C=C/c4ccc(O)c(OC)n4)cc3O2)cc1O` [Compound F, (S,E) 5-hydroxy-2-(3-hydroxy-4-methoxyphenyl)-4-oxochroman-7-yl 3-(5-hydroxy-6-methoxypyridin-2-yl) acrylate acid ester]: the concentration for half-maximal inhibition (IC50) in data set [1] was over 100 µM; in data set [2], over 100 µM; in data set [3], over 100 µM; in data set [4], 23.7 ± 1.5 µM; in data set [5], 92.1 ± 2.73 µM. Further, the “activities compared with Ara-C” value in data set [6] is reported as “equal or better activities than Ara-C”.

Turning to `COc1ccc([C@@H]2CC(=O)c3c(O)cc(OC(=O)/C=C/c4ccccn4)cc3O2)cc1OC` [Compound G, (S,E) 2-(3,4-dimethoxyphenyl)-5-hydroxy-4-oxochroman-7-yl 3-(pyridin-2-yl) acrylate acid ester], the IC50 in data set [1] was 28.5 ± 0.45 µM; in data set [2], over 100 µM; in data set [3], 69.13 ± 0.36 µM; in data set [4] it was over 100 µM; in data set [5], over 100 µM. In data set [6], the “activities compared with Ara-C” value is listed as “equal or better activities than Ara-C”.

On to `COc1ccc([C@@H]2CC(=O)c3c(O)cc(OC(=O)/C=C/c4ccc(C)cn4)cc3O2)cc1OC` [Compound H, (S,E) 2-(3,4-dimethoxyphenyl)-5-hydroxy-4-oxochroman-7-yl 3-(5-methylpyridin-2-yl) acrylate acid ester], for which the IC50 in data set [1] is over 100 µM; in data set [2], 63.9 ± 2.28 µM; in data set [3], over 100 µM; in data set [4] it was 47.88 ± 0.4 µM; in data set [5] it was over 100 µM. The “activities compared with Ara-C” value in data set [6] was “equal or better activities than Ara-C”.

Regarding `COc1ccc([C@@H]2CC(=O)c3c(O)cc(OC(=O)/C=C/c4ccc(Cl)cn4)cc3O2)cc1OC` [Compound I, (S,E) 2-(3,4-dimethoxyphenyl)-5-hydroxy-4-oxochroman-7-yl 3-(5-chloropyridin-2-yl) acrylate acid ester], the IC50 in data set [1] is 63.9 ± 2.28 µM; in data set [2] it was 16.1 ± 0.47 µM; in data set [3], over 100 µM; in data set [4], 63.9 ± 2.28 µM; in data set [5] it was over 100 µM. Moreover, in data set [6], the “activities compared with Ara-C” value is on record as “equal or better activities than Ara-C”.

In the case of `COc1ccc([C@@H]2CC(=O)c3c(O)cc(OC(=O)/C=C/c4ccc(F)cn4)cc3O2)cc1OC` [Compound J, (S,E) 2-(3,4-dimethoxyphenyl)-5-hydroxy-4-oxochroman-7-yl 3-(5-fluoropyridin-2-yl) acrylate acid ester], the IC50 in data set [1] was 25.1 ± 0.47 µM; in data set [2], over 100 µM; in data set [3], 46.3 ± 0.47 µM; in data set [4] it was 84.31 ± 0.47 µM; in data set [5] it was 16.1 ± 0.47 µM. Moreover, in data set [6], the “activities compared with Ara-C” value was “equal or better activities than Ara-C”.

As for `COc1ccc([C@@H]2CC(=O)c3c(O)cc(OC(=O)/C=C/c4ccc([N+](=O)[O-])cn4)cc3O2)cc1OC` [Compound K, (S,E) 2-(3,4-dimethoxyphenyl)-5-hydroxy-4-oxochroman-7-yl 3-(5-nitropyridin-2-yl) acrylate acid ester], the half-maximal inhibitory concentration (IC50) in data set [1], in data set [2], in data set [3], in data set [4] and in data set [5] was over 100 µM each time.

`COc1ccc([C@@H]2CC(=O)c3c(O)cc(OC(=O)/C=C/c4ccc(O)c(OC)n4)cc3O2)cc1OC` [Compound M, (S,E) 2-(3,4-dimethoxyphenyl)-5-hydroxy-4-oxochroman-7-yl 3-(5-hydroxy-6-methoxypyridin-2-yl) acrylate acid ester]: the half-inhibitory concentration (IC50) in data set [1] was over 100 µM; in data set [2], 63.87 ± 0.4 µM; in data set [3] it was over 100 µM; in data set [4] it was 33.3 ± 2.08 µM; in data set [5], 18.6 ± 1.01 µM. In addition, in data set [6], the “activities compared with Ara-C” value is reported as “equal or better activities than Ara-C”.

With `COc1ccc([C@@H]2CC(=O)c3c(O)cc(O)cc3O2)cc1O` [hesperetin, Hesperetin], the “inhibition of proliferation of HepG2 cells” value in data set [7] was “can inhibit the proliferation of HepG2 cells in vitro”. Moreover, the toxicity of doxorubicin result in data set [8] is on record as “could reduce the toxicity of doxorubicin in rats”.
